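Where inhibition never reached the appropriate level, the endpoint shown equals the highest concentration tested. Otherwise, values were interpolated linearly from a five-concentration, 48-hour dose response in 96-well plates. GI50 = concentration required for 50% inhibition of growth. TGI: concentration producing complete growth inhibition.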
Tests used:
Experiment in all cases: NCI tumour cell line growth inhibition, 48 h
SK-MEL-2 melanoma = system: SK-MEL-2 melanoma
SNB-75 CNS = system: SNB-75 CNS
SW-620 colon = system: SW-620 colon
COLO 205 colon = system: COLO 205 colon
786-0 renal = system: 786-0 renal
IGROV1 ovarian = system: IGROV1 ovarian
OVCAR-8 ovarian = system: OVCAR-8 ovarian
DU-145 prostate = system: DU-145 prostate
LOX IMVI melanoma = system: LOX IMVI melanoma
BT-549 breast = system: BT-549 breast

Compound | TGI (SK-MEL-2 melanoma) | TGI (SNB-75 CNS) | TGI (SW-620 colon) | TGI (COLO 205 colon) | TGI (786-0 renal) | TGI (IGROV1 ovarian) | TGI (OVCAR-8 ovarian) | GI50 (DU-145 prostate) | TGI (DU-145 prostate) | GI50 (SK-MEL-2 melanoma) | GI50 (LOX IMVI melanoma) | TGI (LOX IMVI melanoma) | GI50 (SNB-75 CNS) | GI50 (COLO 205 colon) | GI50 (786-0 renal) | GI50 (BT-549 breast) | TGI (BT-549 breast) | GI50 (IGROV1 ovarian) | GI50 (OVCAR-8 ovarian) | GI50 (SW-620 colon)
CC1=NN(C(=O)c2cc(Cl)cc([N+](=O)[O-])c2)C(=O)C1N=Nc1ccccc1C(=O)O (stereo not drawn) | > 100 µM | > 100 µM | > 100 µM | > 100 µM | > 100 µM | > 100 µM | > 100 µM |  |  |  |  |  |  |  |  |  |  |  |  | 
Cc1ccc(/C=C2\CN(Cc3cn(CCNc4ccnc5cc(Cl)ccc45)nn3)C/C(=C\c3ccc(C)cc3)C2=O)cc1 | 3.65 µM | 3.53 µM |  | 3.42 µM | 3.36 µM | 3.73 µM | 4.85 µM | 1.76 µM | 3.17 µM | 1.99 µM | 1.76 µM | 3.36 µM | 1.61 µM | 1.89 µM | 1.85 µM | 1.89 µM | 3.35 µM | 1.92 µM | 2.03 µM | 
CCOC(=O)NC(=O)c1cn(C2OC(CO)C(O)C2O)c(=O)[nH]c1=O (stereo not drawn) | > 100 µM | > 100 µM | > 100 µM |  | > 100 µM | > 100 µM | > 100 µM |  |  |  |  | > 100 µM |  |  |  |  |  |  |  | 
COC(=O)C12C3C4C1C1C2C3C41C(=O)N(C(C)C)C(C)C (stereo not drawn) |  | > 100 µM | > 100 µM | > 100 µM | > 100 µM | > 100 µM | > 100 µM |  |  |  |  |  |  |  |  |  |  |  |  | 
CCC1(CC)C(=O)[N-]C(=O)[N-]C1=O.[Au+].[Au+].c1ccc([PH+](c2ccccc2)c2ccccc2)cc1.c1ccc([PH+](c2ccccc2)c2ccccc2)cc1 |  |  |  | 3.36 µM | 2.14 µM | 2.3 µM |  |  |  |  |  |  |  | 1.74 µM | 0.911 µM |  |  | 1.03 µM |  | 
CCOC(=O)/C(C#N)=C(N)/C(=N\Nc1cccc(C(F)(F)F)c1)C(=O)OCC | > 100 µM | > 100 µM | > 100 µM | > 100 µM | > 100 µM | > 100 µM | > 100 µM |  |  |  |  | > 100 µM |  |  |  |  |  |  |  | 
O=C(O)c1oc2cccc3c2c1CCC3 | > 100 µM | > 100 µM | > 100 µM | > 100 µM | > 100 µM | > 100 µM | > 100 µM |  |  |  |  | > 100 µM |  |  |  |  |  |  |  | 
O=C1NC(O)CCN1C1CC(O)C(CO)O1 (stereo not drawn) | > 100 µM |  | > 100 µM | > 100 µM | > 100 µM | > 100 µM | > 100 µM |  | > 100 µM |  |  | > 100 µM |  |  |  |  | > 100 µM |  |  | 
C(#Cc1ccccc1C#Cc1ccccn1)c1ccccn1 | 36 µM | 42.6 µM | 56.7 µM | 46.4 µM | > 100 µM |  | 40.1 µM | 19.8 µM | 38 µM | 18.4 µM | 15.4 µM | 30.9 µM | 18.5 µM | 16.9 µM | 18.3 µM | 23.6 µM | 45.2 µM |  | 17.8 µM | 21.2 µM
Cc1ccc(SCC(O)=C2C(=O)CCCC2=O)cc1 | > 100 µM | > 100 µM | > 100 µM | > 100 µM | > 100 µM | > 100 µM | > 100 µM |  |  |  |  | > 100 µM |  |  |  |  |  |  |  | 
Cc1cc(S(=O)(=O)Nc2nc3cc(-c4ccsc4)sc3c(=O)n2N)c(S)cc1Cl | > 100 µM | > 100 µM | > 100 µM | > 100 µM | > 100 µM | > 100 µM | > 100 µM | > 100 µM | > 100 µM | > 100 µM | 60.7 µM | > 100 µM | > 100 µM | > 100 µM | 90.9 µM |  |  | > 100 µM | 68.1 µM | > 100 µM

— PubChem BioAssay (NCI)
